Measurements published in patent US10414739B2, “Compounds as inhibitors of the YAP/TAZ-TEAD interaction and their use in the treatment of malignant mesothelioma” (INVENTIVA, priority 2015, dated 2019).

Tests used:
[1] = target: T1, YAP-TEAD interaction (human YAP2-His6 (50-114) / human TEAD1-GST (209-426)) (Homo sapiens, UniProt P28347); assay: YAP-TEAD AlphaLISA assay; format: binding; details: for Emax: 2 h, maximal % inhibition, read-out: Max Act.; for Emax / IC50: YAP-TEAD AlphaLISA; for IC50: 2 h equilibration at room temperature
T1 construct: GST-TEAD1 (209-426) produced in E. coli; made in house; host or cells: E. coli
Method: YAP-TEAD AlphaLISA Assay for IC50 Value Determination.
YAP-TEAD binding and inhibition was assessed by monitoring the engagement of YAP2 peptide (human YAP2-His6 (50-114) produced in E. coli) with TEAD (human TEAD1-GST (GST-TEAD1 (209-426) produced in E. coli) using the AlphaLisa technology (Perkin-Elmer). Specifically, in a 384 well (Axygen) 5 μl of compounds were dispensed in 100% DMSO following a semi log serial dilution, with a top concentration of […] (10 concentrations). A ‘3 partners solution’ was prepared by mixing AlphaScreen Glutathione Donor beads 15 μg/ml (PerkinElmer), Anti-6×His AlphaLisA Acceptor beads 15 μg/ml (PerkinElmer) and Human YAP2 9 nM in 100 mM NaCl, 25 mM Hepes, 0.1% BSA, 0.5% NoNidet®P40 buffer. In the 384 assay plate (Proxiplate, Perkin-Elmer)) 2 μl of compound at each concentration, 6 μl of buffer, 6 μl of hTEAD1-GST 9 nM and 6 μl of ‘3 partner solution’ were mixed. After 2 h equilibration at room temperature in the dark the plates were read on an Envision instrument (Excitation @ 680 nm/Emission @ 570 nm, Perkin Elmer).
Results were expressed as % inhibition=100×((HighControl−Cpd)/(HighControl−LowControl)), were High control is the maximum response obtained with all components and Low control is the basal response obtained with all components without GST-Tead1.
Cpd is the response obtained for test compounds.
IC50 (half maximal inhibitory concentration) was determined by fitting the concentration response curves using a 3-parameter curve fit equation and determining concentration corresponding to 50% inhibition.

T1 sequence (P28347 209-426): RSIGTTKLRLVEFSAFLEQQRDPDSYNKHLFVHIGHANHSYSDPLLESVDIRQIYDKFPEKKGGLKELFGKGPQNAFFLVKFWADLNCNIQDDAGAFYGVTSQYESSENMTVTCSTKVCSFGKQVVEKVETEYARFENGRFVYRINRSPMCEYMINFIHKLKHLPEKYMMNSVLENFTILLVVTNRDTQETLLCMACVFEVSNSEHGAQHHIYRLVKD

| Emax [1] | IC50 [1] | melting point | inhibition at 1000 µM ([1]; at 1 mM concentration) | Structure (SMILES) |
| --- | --- | --- | --- | --- |
| 95% | 3.41 µM | > 260 °C | – | COc1cc(/C=N/N(C)C2=NS(=O)(=O)c3c(C)cc(F)cc32)ccc1O [Example 20, 4-[(E)-[(5-fluoro-7-methyl-1,1-dioxo-1,2-benzothiazol-3-yl)-methyl-hydrazono]methyl]-2-methoxy-phenol] |
| 97% | 4.57 µM | > 260 °C | – | COc1cc(/C=N/N(C)C2=NS(=O)(=O)c3cc(C(=O)O)ccc32)ccc1O [Example 34, 3-[[(E)-(4-hydroxy-3-methoxy-phenyl)methyleneamino]-methyl-amino]-1,1-dioxo-1,2-benzothiazole-6-carboxylic acid] |
| 77% | 0.354 µM | – | – | COc1ccc2c(c1)C(N(C)/N=C/c1ccc(O)c(OC)c1)=NS2(=O)=O [Example 35, 2-methoxy-4-[(E)-[(5-methoxy-1,1-dioxo-1,2-benzothiazol-3-yl)-methyl-hydrazono]methyl]phenol] |
| 77% | 78 µM | – | – | COc1cc(/C=N/N(C2=NS(=O)(=O)c3ccccc32)C(C)C)ccc1O [Example 36, 4-[(E)-[(1,1-dioxo-1,2-benzothiazol-3-yl)-isopropyl-hydrazono]methyl]-2-methoxy-phenol] |
| 74% | 70.8 µM | – | – | COc1cc(/C=N/N(CC(F)(F)F)C2=NS(=O)(=O)c3ccccc32)ccc1O [Example 37, 4-[(E)-[(1,1-dioxo-1,2-benzothiazol-3-yl)-(2,2,2-trifluoroethyl)-hydrazono]methyl]-2-methoxy-phenol] |
| 99% | 105 µM | – | – | COc1cc(/C=N/N(C2=NS(=O)(=O)c3ccccc32)c2ccc(C(=O)O)cc2)ccc1O [Example 38, 4-[(1,1-dioxo-1,2-benzothiazol-3-yl)-[(E)-(4-hydroxy-3-methoxy-phenyl)methyleneamino]amino]benzoic acid] |
| 61% | 62.2 µM | – | – | COc1cc(/C=N/N(C)C2=NS(=O)(=O)c3cc(-c4ccccc4)ccc32)ccc1O [Example 39, 4-[(E)-[(1,1-dioxo-6-phenyl-1,2-benzothiazol-3-yl)-methyl-hydrazono]-methyl]-2-methoxy-phenol] |
| 91% | 16.2 µM | – | – | COc1ccc2c(c1)S(=O)(=O)N=C2N(C)/N=C/c1ccc(O)c(OC)c1 [Example 40, 2-methoxy-4-[(E)-[(6-methoxy-1,1-dioxo-1,2-benzothiazol-3-yl)-methyl hydrazono]methyl]phenol] |
| 85% | 5.74 µM | – | – | COc1cc(/C=N/N(C)C2=NS(=O)(=O)c3cc(F)ccc32)ccc1O [Example 41, 4-[(E)-[(6-fluoro-1,1-dioxo-1,2-benzothiazol-3-yl)-methyl-hydrazono]-methyl]-2-methoxy-phenol] |
| 84% | 2.47 µM | – | – | COc1cc(/C=N/N(C)C2=NS(=O)(=O)c3ccc(F)cc32)ccc1O [Example 42, 4-[(E)-[(5-fluoro-1,1-dioxo-1,2-benzothiazol-3-yl)-methyl-hydrazono]-methyl]-2-methoxy-phenol] |
| – | – | – | 30% | COc1ccc(/C=N/N(C)C2=NS(=O)(=O)c3ccccc32)cc1OC [N-[(E)-(3,4-dimethoxyphenyl)methyleneamino]-N-methyl-1,1-dioxo-1,2-benzothiazol-3-amine, reference compound] |
